pIC50: −log10 of the molar value.
Target: T1, Mer (Homo sapiens, UniProt Q12866)
T1 construct: host or cells: 293A cells (Thermo Fisher #R70507)
T1 sequence (Q12866 21-999): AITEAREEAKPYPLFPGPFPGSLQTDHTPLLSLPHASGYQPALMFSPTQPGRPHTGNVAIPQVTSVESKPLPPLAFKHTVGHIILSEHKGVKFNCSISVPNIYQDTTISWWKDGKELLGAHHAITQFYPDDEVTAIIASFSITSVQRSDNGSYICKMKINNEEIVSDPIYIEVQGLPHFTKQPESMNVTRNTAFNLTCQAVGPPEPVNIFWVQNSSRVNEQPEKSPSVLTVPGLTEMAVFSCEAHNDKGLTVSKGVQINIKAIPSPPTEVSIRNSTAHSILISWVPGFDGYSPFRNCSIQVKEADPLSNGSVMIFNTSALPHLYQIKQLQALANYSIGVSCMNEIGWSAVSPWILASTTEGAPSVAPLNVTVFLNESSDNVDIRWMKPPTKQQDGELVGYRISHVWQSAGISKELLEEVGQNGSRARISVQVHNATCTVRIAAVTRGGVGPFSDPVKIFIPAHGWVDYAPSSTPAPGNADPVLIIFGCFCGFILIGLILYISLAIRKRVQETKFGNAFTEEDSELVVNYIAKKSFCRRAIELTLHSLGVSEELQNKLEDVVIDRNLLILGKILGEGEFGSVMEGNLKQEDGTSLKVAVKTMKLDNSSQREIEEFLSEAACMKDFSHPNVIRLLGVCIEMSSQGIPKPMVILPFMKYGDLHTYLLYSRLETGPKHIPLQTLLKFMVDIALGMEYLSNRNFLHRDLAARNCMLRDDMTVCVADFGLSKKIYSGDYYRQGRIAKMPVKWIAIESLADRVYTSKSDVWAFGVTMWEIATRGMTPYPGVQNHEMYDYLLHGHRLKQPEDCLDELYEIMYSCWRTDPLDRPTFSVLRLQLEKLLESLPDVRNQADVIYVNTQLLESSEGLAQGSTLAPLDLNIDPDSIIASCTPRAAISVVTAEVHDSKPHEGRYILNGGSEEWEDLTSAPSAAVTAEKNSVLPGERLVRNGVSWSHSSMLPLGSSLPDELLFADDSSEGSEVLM
Assay: Mer autophosphorylation ELISA in transient transfected 293A cells
Format: cell-based
Settings: cellular activity; MERTK-transfected 293A cells, phospho-Mer ELISA
Experimental: 293A cells (Thermo Fisher #R70507) were seeded at 1.5×10^6 cells/well onto 100 mm dish (Greiner #664169), in DMEM (Thermo Fisher #11995-040) containing 10% FBS (Thermo Fisher #26140-079), 1% MEM NEAA (Thermo Fisher #11140-050), 1% GlutaMax (Thermo Fisher #35050-061), and 1% Penicillin Streptomycin (Thermo Fisher #15140-122). 293A cells were incubated at 37° C., 5% CO2 for 24 h and then transfected with 6 μg MERTK DNA (Genecopoeia #EX-Z8208-M02) using TransIT LT1 transfection reagent (Mirus-Bio #MIR2305). After 24 h incubation, the transfected 293A cells were seeded at 1×10^5 cells/well onto 96-well plates (Corning #3904) in DMEM growth medium overnight. Test compounds were serially diluted to produce an 8-point dose curve in fresh serum-free medium to a final concentration of 0.3% DMSO (vehicle) and added to the cells and incubated for 1 h. Cells were then immediately lysed with 150 μL of cold 1× lysis buffer [20 mM Tris, 137 mM sodium chloride, 2 mM EDTA, 10% glycerol, 1% NP-40 alternative, 1 mM activated sodium orthovanadate, 1 mM PefaBloc SC (Sigma-Aldrich #11429868001), protease/phosphatase inhibitor tablet (Thermo Fisher #A32959)]. Lysates were clarified by centrifugation and 50 μL/well added into the human phospho-Mer DuoSet IC ELISA (R&D Systems #DYC2579-2). Assay was performed according to manufacturer's instructions and sample phospho-Mer concentrations were extrapolated using human phospho-Mer control (R&D Systems #841793) as a standard. Positive control wells (100% activity) contained DMSO-treated cell lysates. Negative control wells (0% activity) contained reference inhibitor-treated cell lysates. IC50 values were calculated by nonlinear regression analysis using a 4-parameter logistic curve fit in ActivityBase XE (IDBS).

| pIC50 | SMILES |
| --- | --- |
| 7.00 to 8.00 | Cc1cc2c(Oc3c(F)cc(NC(=O)C4(C(=O)Nc5ccc(F)cc5)CC4)c(F)c3F)ccnc2cc1-c1cnn(C)c1 [Compound 110, 1-N-(4-Fluorophenyl)-1-N′-[2,3,5-trifluoro-4-[6-methyl-7-(1-methylpyrazol-4-yl)quinolin-4-yl]oxyphenyl]cyclopropane-1,1-dicarboxamide] |
| 7.00 to 8.00 | CN1CCN(c2cc(-c3ccc4c(Oc5ccc(NC(=O)C6(C(=O)Nc7ccc(F)cc7)CC6)cc5)ccnc4c3)ccn2)CC1 [Compound 111, 1-N′-(4-Fluorophenyl)-1-N-[4-[7-[2-(4-methylpiperazin-1-yl)pyridin-4-yl]quinolin-4-yl]oxyphenyl]cyclopropane-1,1-dicarboxamide] |
| 7.00 to 8.00 | COc1cncc(-c2ccc3c(Oc4ccc(NC(=O)C5(C(=O)Nc6ccc(F)cc6)CC5)cc4)ccnc3c2)c1 [Compound 47, 1-N′-(4-Fluorophenyl)-1-N-[4-[7-(5-methoxypyridin-3-yl)quinolin-4-yl]oxyphenyl]cyclopropane-1,1-dicarboxamide] |
| 7.00 to 8.00 | O=C(Nc1ccc(F)cc1)C1(C(=O)Nc2cc(F)c(Oc3ccnc4cc(-c5cccnc5)ccc34)cc2F)CC1 [Compound 115, 1-N′-[2,5-Difluoro-4-(7-pyridin-3-ylquinolin-4-yl)oxyphenyl]-1-N-(4-fluorophenyl)cyclopropane-1,1-dicarboxamide] |
| 7.00 to 8.00 | O=C(Nc1ccc(F)cc1)C1(C(=O)Nc2ccc(Oc3ccnc4cc(-c5cc6n(n5)CCC6)ccc34)cc2)CC1 [Compound 124, 1-N-[4-[7-(5,6-Dihydro-4H-pyrrolo[1,2-b]pyrazol-2-yl)quinolin-4-yl]oxyphenyl]-1-N′-(4-fluorophenyl)cyclopropane-1,1-dicarboxamide] |
| 7.00 to 8.00 | COc1cc(-c2ccc3c(Oc4ccc(NC(=O)C5(C(=O)Nc6ccc(F)cc6)CC5)cc4)ccnc3c2)ccn1 [Compound 31, 1-N′-(4-Fluorophenyl)-1-N-[4-[7-(2-methoxypyridin-4-yl)quinolin-4-yl]oxyphenyl]cyclopropane-1,1-dicarboxamide] |
| 7.00 to 8.00 | Cc1cc2c(Oc3cc(F)c(NC(=O)C4(C(=O)Nc5ccc(F)cc5)CC4)cc3F)ccnc2cc1-c1ncc[nH]1 [Compound 121, 1-N′-[2,5-Difluoro-4-[7-(1H-imidazol-2-yl)-6-methylquinolin-4-yl]oxyphenyl]-1-N-(4-fluorophenyl)cyclopropane-1,1-dicarboxamide] |
| 7.00 to 8.00 | CC(C)n1cc(-c2ccc3c(Oc4ccc(NC(=O)C5(C(=O)Nc6ccc(F)cc6)CC5)cc4)ccnc3c2)cn1 [Compound 21, 1-N′-(4-Fluorophenyl)-1-N-[4-[7-(1-propan-2-ylpyrazol-4-yl)quinolin-4-yl]oxyphenyl]cyclopropane-1,1-dicarboxamide] |
| 7.00 to 8.00 | Cn1ccc(-c2ccc3c(Oc4ccc(NC(=O)C5(C(=O)Nc6ccc(F)cc6)CC5)cc4)ccnc3c2)cc1=O [Compound 117, 1-N′-(4-Fluorophenyl)-1-N-[4-[7-(1-methyl-2-oxopyridin-4-yl)quinolin-4-yl]oxyphenyl]cyclopropane-1,1-dicarboxamide] |
| 7.00 to 8.00 | O=C(Nc1ccc(F)cc1)C1(C(=O)Nc2ccc(Oc3ccnc4cc(-c5ccncn5)ccc34)cc2)CC1 [Compound 114, 1-N′-(4-Fluorophenyl)-1-N-[4-(7-pyrimidin-4-ylquinolin-4-yl)oxyphenyl]cyclopropane-1,1-dicarboxamide] |
| 7.00 to 8.00 | Cc1cc2c(Oc3ccc(NC(=O)C4(C(=O)Nc5ccc(F)cc5)CC4)cc3F)ccnc2cc1-c1ncc[nH]1 [Compound 122, 1-N′-[3-Fluoro-4-[7-(1H-imidazol-2-yl)-6-methylquinolin-4-yl]oxyphenyl]-1-N-(4-fluorophenyl)cyclopropane-1,1-dicarboxamide] |
| 7.00 to 8.00 | O=C(Nc1ccc(F)cc1)C1(C(=O)Nc2ccc(Oc3ccnc4cc(-c5ccnc(F)c5)ccc34)cc2)CC1 [Compound 33, 1-N′-(4-Fluorophenyl)-1-N-[4-[7-(2-fluoropyridin-4-yl)quinolin-4-yl]oxyphenyl]cyclopropane-1,1-dicarboxamide] |
| 7.00 to 8.00 | O=C(Nc1ccc(F)cc1)C1(C(=O)Nc2ccc(Oc3ccnc4cc(-c5cncs5)ccc34)cc2)CC1 [Compound 116, 1-N′-(4-Fluorophenyl)-1-N-[4-[7-(1,3-thiazol-5-yl)quinolin-4-yl]oxyphenyl]cyclopropane-1,1-dicarboxamide] |
| 6.52 to 7.00 | CC(C)Oc1ccc(-c2ccc3c(Oc4ccc(NC(=O)C5(C(=O)Nc6ccc(F)cc6)CC5)cc4)ccnc3c2)cn1 [Compound 50, 1-N′-(4-Fluorophenyl)-1-N-[4-[7-(6-propan-2-yloxypyridin-3-yl)quinolin-4-yl]oxyphenyl]cyclopropane-1,1-dicarboxamide] |
| 7.00 to 8.00 | Cc1cc2c(Oc3ccc(NC(=O)C4(C(=O)Nc5ccc(F)cc5)CC4)cc3)ccnc2cc1-c1ncc[nH]1 [Compound 120, 1-N′-(4-Fluorophenyl)-1-N-[4-[7-(1H-imidazol-2-yl)-6-methylquinolin-4-yl]oxyphenyl]cyclopropane-1,1-dicarboxamide] |
| 7.00 to 8.00 | O=C(Nc1ccc(F)cc1)C1(C(=O)Nc2ccc(Oc3ccnc4cc(-c5ccc(F)nc5)ccc34)cc2)CC1 [Compound 41, 1-N′-(4-Fluorophenyl)-1-N-[4-[7-(6-fluoropyridin-3-yl)quinolin-4-yl]oxyphenyl]cyclopropane-1,1-dicarboxamide] |
| 7.00 to 8.00 | O=C(Nc1ccc(F)cc1)C1(C(=O)Nc2ccc(Oc3ccnc4cc(-c5cccnc5)ccc34)c(F)c2)CC1 [Compound 113, 1-N-(4-Fluorophenyl)-1-N′-[3-fluoro-4-(7-pyridin-3-ylquinolin-4-yl)oxyphenyl]cyclopropane-1,1-dicarboxamide] |
| 7.00 to 8.00 | O=C(Nc1ccc(F)cc1)C1(C(=O)Nc2ccc(Oc3ccnc4cc(-c5cnn6c5CCC6)ccc34)cc2)CC1 [Compound 29, 1-N-[4-[7-(5,6-Dihydro-4H-pyrrolo[1,2-b]pyrazol-3-yl)quinolin-4-yl]oxyphenyl]-1-N′-(4-fluorophenyl)cyclopropane-1,1-dicarboxamide] |
| 7.00 to 8.00 | N#Cc1cncc(-c2ccc3c(Oc4ccc(NC(=O)C5(C(=O)Nc6ccc(F)cc6)CC5)cc4)ccnc3c2)c1 [Compound 40, 1-N-[4-[7-(5-Cyanopyridin-3-yl)quinolin-4-yl]oxyphenyl]-1-N′-(4-fluorophenyl)cyclopropane-1,1-dicarboxamide] |
| 7.00 to 8.00 | O=C(Nc1ccc(F)cc1)C1(C(=O)Nc2ccc(Oc3ccnc4cc(-c5cncc(F)c5)ccc34)cc2)CC1 [Compound 45, 1-N′-(4-Fluorophenyl)-1-N-[4-[7-(5-fluoropyridin-3-yl)quinolin-4-yl]oxyphenyl]cyclopropane-1,1-dicarboxamide] |
| 7.00 to 8.00 | N#Cc1cc(-c2ccc3c(Oc4ccc(NC(=O)C5(C(=O)Nc6ccc(F)cc6)CC5)cc4)ccnc3c2)ccn1 [Compound 34, 1-N-[4-[7-(2-Cyanopyridin-4-yl)quinolin-4-yl]oxyphenyl]-1-N′-(4-fluorophenyl)cyclopropane-1,1-dicarboxamide] |
| 7.00 to 8.00 | O=C(Nc1ccc(F)cc1)C1(C(=O)Nc2cc(F)c(Oc3ccnc4cc(-c5cnn(C(F)F)c5)ccc34)cc2F)CC1 [Compound 118, 1-N′-[4-[7-[1-(Difluoromethyl)pyrazol-4-yl]quinolin-4-yl]oxy-2,5-difluorophenyl]-1-N-(4-fluorophenyl)cyclopropane-1,1-dicarboxamide] |

Reference: US12503438B2, “Compounds for the treatment of kinase-dependent disorders” (Exelixis, Inc., priority 2019, dated 2025)
